Test results as given in patent US20100104546A1, “MODULATORS OF ANTIGEN-DEPENDENT T CELL PROLIFERATION” (CHILDREN, YOUTH AND WOMEN'S HEALTH SERVICE, priority 2007, published 2010).

Legend:
splenocytes = assay: Mitogen (PHA/PMA, PMA/A23187, PHA)-stimulated splenocyte adhesion and proliferation, ex vivo; format: in vivo, mice
Method: (A) β-oxa-21:3n-3 or vehicle was injected intraperitoneally to 5 day SRBC-sensitized mice. After 2 h splenocytes (1×10^6 cells) were cultured in a 24 well tissue culture plate (Nunc, Inc. […] Cells were fixed with 2% Para formaldehyde and inspected under a light microscopy and photographed. (B) β-oxa-21:3n-3 or vehicle was injected intraperitoneally or intravenously to 5 day SRBC-sensitized mice. After 2 h splenocytes (0.2 million) were cultured in a 96 well tissue culture plate (Nunc, Inc. Denmark) in the presence of PHA and PMA (PHA/PMA) or PMA (10 ng/ml) and A23187 ([…]) (PMA/A23187) for 3 days. Thymidine incorporation for final 16 hours of culture was determined. The data represents the mean±SEM of 3 separate experiments each conducted in quintuplets.
(§1) 6-7 weeks old Balb/c mice were injected subcutaneously with 100 μl of 10% sheep red blood cells (IMVS, Inc., Adelaide, Australia) After 5 days 100 ul of β-oxa-21:3n-3 at indicated amounts were injected intraperitoneally, intravenously or gavaged orally. In another experimental set up mice were given β-tha-21:3n-3 i.p. In a third approach mice were infected subcutaneously with 100 μl of Tetanus Toxoid (2,500 Lf/ml). Then 7 days later were given β-oxa-21:3n-3. At indicated time points mice were sacrificed and spleens were removed. Single cell suspensions were prepared and white blood cells (WBC) were enriched by passing through Ficoll-Paque Plus (GE Healthcare). Cells were washed with RPMI-1640 containing 10% fetal bovine serum, 10 mM Hepes, antibiotics and glutamine (RPMI-10) and counted using an automated Cell-Dyne 3500R (Abbott, Inc. MA) instrument. Cells were viable (>98%) as judged by trypan blue exclusion. (β-oxa-21:3n-3)- or vehicle-treated mouse samples (200,000/well) were mixed either with SRBC (600,000/well) with 100 μl of Tetanus toxoid (50 Lf/ml) or phytohaemaglutinin (PHA) (2 μg/ml) or with PHA plus phorbol myristate acetate (PMA) (10 ng/ml) or with PMA plus calcium ionophore A23187 ([…]). Cells were cultured in 96 well U bottom plates (Nunc, Inc. Denmark) for 3 days (except for TT −5 days) at 37° C. under humidified air containing 5% CO2. At some instances 50 μl of supernatants were transferred to a new plate and frozen immediately at −70° C. to be used for cytokine measurements. Thymidine (50 μl, 1 μCi/well) was added at final 16 hours of culture. Cells were harvested and thymidine incorporation was determined using a beta scintillation counter.
To assess whether or not the immunosuppression observed was restricted to antigen-dependent stimulation, we explored the effect of β-oxa-21:3n-3 on mitogen-induced splenocyte adhesion and proliferation. […] The cells were cultured for 3 days and the extent of proliferation was assessed by thymidine incorporation.

[1] = test system: Th1, Th2 and macrophage-related cytokines; assay: Ex vivo cytokine production by antigen (SRBC)-stimulated splenocytes; format: in vivo, mice; details: splenocytes cultured 3 days with SRBC, IP dosing
Th1 and Th2 cytokines = assay: Cytokine levels of mitogen-stimulated splenocytes, ex vivo; format: in vivo, mice; details: 3 days
Method: Mice were sensitized with SRBC and after 5 days were injected with β-oxa-21:3n-3 or vehicle intraperitoneally. After 2 h spleens were removed, cell suspensions prepared and incubated in the presence of mitogens PHA/PMA or PMA/A23187. After 3 days of incubation, the culture fluids and were harvested and used to determine the levels of Th1 and Th2 cytokines. Baseline subtracted levels of cytokines plotted in the presence of vehicle or β-oxa-21:3n-3. The values represent the mean±SEM separate experiments each conducted in quintuplets.
as §1
To determine whether or not these effects were due to non-specific suppression of the immune system, we examined the production of Th1 and Th2 cytokines in mitogen-activated mononuclear leukocytes. Splenocytes from (β-oxa-21:3n-3)- or vehicle-administered pre-immune animals were cultured for 3 days in the presence of PHA-PMA or PMA-A23187. The cell culture fluids were collected and cytokines measured.

[2] = test system: splenic T cells and MHC class II cells; assay: Co-culture of enriched splenic T cells and MHC class II cells, SRBC-induced proliferation; format: in vivo, mice; details: 80 mg/kg IP, 3 days
Method: (A) β-oxa-21:3n-3 (80 mg/kg) or vehicle was injected once intraperitoneally to 5 days SRBC-sensitized mice. After the indicated time period spleens were removed and cell suspensions were incubated in the presence or absence of SRBC for 3 days. Thymidine incorporation for final 16 hours of culture was determined. Percent inhibition of proliferation by β-oxa-21:3n-3 compared to vehicle injected animals are depicted against duration of exposure. (B) β-oxa-21:3n-3 (80 mg/kg) or vehicle was injected once intraperitoneally to 5 days SRBC-sensitized mice. After two hours spleens were removed and T cell and MHC II positive cells were enriched using MACS magnetic beads. As indicated, vehicle and β-oxa-21:3n-3 injected animal's enriched cells were then co-cultured in the presence or absence of SRBC for 3 days. Thymidine incorporation for final 16 h of culture was determined. Splenocytes proliferation is plotted versus the type of co-cultured cells.
In co-culture experiments negative selection purification systems were utilized to ensure isolation of untouched cells to avoid side effects on cell viability and activity. […] For accuracy in cell counts and cell viability, the enriched cells were also inspected by hemocytometer and then counted using Cell-Dyne 3500R (ABBOTT, Inc. MA) and then co-cultured. […]

spleen cells = assay: Viability and composition of splenic cells by microscopy and flow cytometry; format: in vivo, mice
Method: Data acquisition was performed using a BD Immunocytometry Systems four-color FACScalibur (Mountain View, Calif.), and the acquired data were analyzed using FloJo software (Tree Star Inc., Palo Alto, Calif.).
To exclude that this effect of β-oxa-21:3n-3 was not due to necrosis or apoptosis of the splenic cells, we examined the viability and composition of live splenic cells from animals treated with this fatty acid, by microscopy and flow cytometry.

[3] = test system: delayed-type hypersensitivity to SRBC antigen; details: intraperitoneal administration, mouse hind paws; cited from earlier work
[4] = IP- or IV-administered, 3 days culture, thymidine incorporation

SMILES: CC/C=C\C/C=C\C/C=C\CCCCCCCCOCC(=O)O [β-oxa-21:3n-3]
- splenocyte proliferation in response to PHA-PMA (splenocytes; [4]): not affected in their responsiveness
- splenocyte proliferation in response to PMA-A23187 (splenocytes; [4]): not affected in their responsiveness
- splenocyte adherence (splenocytes; PHA and PMA stimulation for 4 h, SRBC pre-sensitized mice): not affected
- splenocyte proliferation in response to PHA alone (splenocytes; not shown): did not affect
- antigen-induced macrophage cytokine levels (MCP-1, KC, IL-12) [1]: no significant effects
- antigen-stimulated Th1 cytokines (IL-2, IL-6, IFNγ and TNFα) [1]: concentration-dependent reduction
- antigen-stimulated Th2 cytokines (IL-4, IL-5, IL-10 and IL-13) [1]: concentration-dependent reduction
- IL-2 secretion (Th1 and Th2 cytokines; PHA-PMA-stimulated splenocytes): higher levels
- levels of IL-4, IL-5, TNFα and IFNγ (Th1 and Th2 cytokines; PHA-PMA-stimulated splenocytes): no substantial increase
- IFNγ secretion (Th1 and Th2 cytokines; PMA-A23187-stimulated splenocytes): reduction
- cytokine secretion (Th1 and Th2 cytokines; PMA-A23187-stimulated splenocytes, apart from IFNγ): did not result in any substantial differences
- splenocyte proliferation, MHC class II cells from treated animals co-cultured with T cells from either treated or vehicle animals [2]: no suppression
- splenocyte proliferation, T cells from treated animals co-cultured with MHC class II cells from treated or vehicle animals [2]: suppressed
- viable cells (excluded propidium iodide) (spleen cells; spleen cells from treated SRBC-sensitized mice): > 95%
- viable cell numbers versus vehicle-treated mice (spleen cells; spleen cells, SRBC-sensitized mice): no major difference
- delayed-type hypersensitivity to SRBC antigen [3]: inhibition
